Target: Human immunodeficiency virus type 1 reverse transcriptase (Human immunodeficiency virus 1, UniProt Q72547)
Assay: Binding affinity to Human immunodeficiency virus 1 reverse transcriptase

Compared with `CC(C)=CCN1Cc2cccc3nc(O)n(c23)CC1C` (centres undefined), `CC(C)=CCN1Cc2cc(Cl)cc3nc(O)n(c23)CC1C` (centres undefined) is higher in pEC50: 5.38 for the first, 7.6 for the second.

First: CC(C)=CCN1Cc2cccc3[nH]c(=S)n(c23)CC1C (centres undefined)
Second: CC(C)=CCN1Cc2cc(C)cc3[nH]c(=S)n(c23)CC1C (centres undefined)
The pEC50 of the first is higher: 7.36 for the first, 6.1 for the second.

First: CC1Cn2c(S)nc3cc(Cl)cc(c32)CN1CC1CCC1 (centres undefined)
Second: CC1Cn2c(S)nc3cc(Cl)cc(c32)CN1CCC1CC1 (centres undefined)
The pEC50 of the first is higher: 7.37 for the first, 5.66 for the second.

Compared with `CCCN1Cc2cccc3[nH]c(=S)n(c23)CC1C` (centres undefined), `C=C(C)CN1Cc2cccc3[nH]c(=O)n(c23)CC1C` (centres undefined) is lower in pEC50: 6.62 for the first, 4.85 for the second.

Compared with `C=C(C)CN1Cc2cc(Cl)cc3[nH]c(=O)n(c23)CC1C` (centres undefined), `C=C(C)CN1Cc2cc(Cl)cc3[nH]c(=S)n(c23)CC1C` (centres undefined) is higher in pEC50: 5.33 for the first, 6.35 for the second.

Compared with `CC(C)=CCN1Cc2c(Br)ccc3nc(S)n(c23)C[C@@H]1C`, `CC(C)=CCN1Cc2c(C)ccc3nc(S)n(c23)C[C@@H]1C` is lower in pEC50: 8.52 for the first, 7.85 for the second.

`CCC(=CCN1Cc2c(Cl)ccc3[nH]c(=S)n(c23)CC1C)CC` (centres undefined) and `CC(C)=CCN1Cc2c(Cl)ccc3[nH]c(=S)n(c23)C[C@@H]1C` [TIVIRAPINE] are within 0.2 log units of each other in pEC50: 8.29 for the first, 8.34 for the second.

First: CCC(=CCN1Cc2cc(Cl)cc3nc(S)n(c23)CC1C)CC (centres undefined)
Second: CC(C)=CCN1Cc2cc(Cl)cc3nc(S)n(c23)CC1C (centres undefined) [TIBO]
The pEC50 of the first is higher: 7.82 for the first, 7.04 for the second.

Going from `C=CCN1Cc2cccc3[nH]c(=O)n(c23)CC1C` (centres undefined) to `CCC(=CCN1Cc2cc(C)cc3nc(O)n(c23)C[C@@H]1C)CC`, the pEC50 rises from 4.23 to 6.51.

`CC(C)=CCN1Cc2cc(Cl)c(Cl)c3nc(S)n(c23)C[C@@H]1C` showed a pEC50 of 7.6.
